Source: the NIST ThermoML archive (doi:10.1016/j.tca.2016.09.005)
± gives the expanded uncertainty stated by the source.

Assays:
[1] = Liquid; for speed of sound / mass density: 100 kPa; for speed of sound: Frequency=3 MHz, Sing-around technique in a fixed-path interferometer; for mass density: Vibrating tube method; for vapor or sublimation pressure: Closed cell (Static) method
[2] = refractive index (Na D-line) (dimensionless); conditions: 293.15 K; 101.33 kPa; Liquid; Standard Abbe refractometry
[3] = xn = mol fraction of the nth substance listed; conditions: 100 kPa, Liquid, x1 = 1; for speed of sound: Frequency=3 MHz, Sing-around technique in a fixed-path interferometer; for mass density: Vibrating tube method

Row | Compound | speed of sound ([1]; 283.15 K) [m/s] | mass density ([1]; 283.15 K) [kg/m3] | speed of sound ([1]; 293.15 K) [m/s] | mass density ([1]; 293.15 K) [kg/m3] | speed of sound ([1]; 303.15 K) [m/s] | mass density ([1]; 303.15 K) [kg/m3] | speed of sound ([1]; 313.15 K) [m/s] | mass density ([1]; 313.15 K) [kg/m3] | refractive index [2] | mass density ([3]; 283.15 K) [kg/m3] | speed of sound ([3]; 313.15 K) [m/s] | also measured
1 | CCO [ethanol] | 1196.8 ± 1.9 | 798.22 ± 0.93 | 1162.3 ± 1.9 | 789.7 ± 0.93 | 1128.2 ± 1.9 | 781.09 ± 0.93 | 1094.6 ± 1.9 | 772.34 ± 0.93 | 1.362 ± 0.001 |  |  | 
2 | CCO [ethanol] + OCCCO |  |  |  |  |  |  |  |  |  | 798.22 ± 0.93 | 1094.6 ± 1.9 | speed of sound ([3]; 283.15 K): 1196.8 ± 1.9 m/s; speed of sound ([3]; 293.15 K): 1162.3 ± 1.9 m/s; mass density ([3]; 293.15 K): 789.7 ± 0.93 kg/m3; speed of sound ([3]; 303.15 K): 1128.2 ± 1.9 m/s; mass density ([3]; 303.15 K): 781.09 ± 0.93 kg/m3; mass density ([3]; 313.15 K): 772.34 ± 0.93 kg/m3
3 | CO [methanol] | 1153.3 ± 1.7 | 800.67 ± 0.91 | 1119.6 ± 1.7 | 791.28 ± 0.91 | 1086.6 ± 1.7 | 781.84 ± 0.91 | 1054.2 ± 1.7 | 772.3 ± 0.91 | 1.3285 ± 0.0009 |  |  | 
4 | CO [methanol] + OCCCO |  |  |  |  |  |  |  |  |  | 800.67 ± 0.91 | 1054.2 ± 1.7 | speed of sound ([3]; 283.15 K): 1153.3 ± 1.7 m/s; speed of sound ([3]; 293.15 K): 1119.6 ± 1.7 m/s; mass density ([3]; 293.15 K): 791.28 ± 0.91 kg/m3; speed of sound ([3]; 303.15 K): 1086.6 ± 1.7 m/s; mass density ([3]; 303.15 K): 781.84 ± 0.91 kg/m3; mass density ([3]; 313.15 K): 772.3 ± 0.91 kg/m3
5 | OCCCO [propan-1,3-diol] | 1659.5 ± 2.6 | 1058.85 ± 1.3 | 1636.3 ± 2.6 | 1052.61 ± 1.2 | 1613.6 ± 2.6 | 1046.36 ± 1.2 | 1591.1 ± 2.6 | 1040.07 ± 1.2 | 1.4393 ± 0.001 |  |  | 
6 | O [water] |  |  |  |  |  |  |  |  | 1.333 ± 0.0009 |  |  | vapor or sublimation pressure ([1]; 273.15 K): 0.593 ± 0.019 kPa; vapor or sublimation pressure ([1]; 283.15 K): 1.21 ± 0.038 kPa; vapor or sublimation pressure ([1]; 293.15 K): 2.328 ± 0.071 kPa; vapor or sublimation pressure ([1]; 303.15 K): 4.251 ± 0.13 kPa; vapor or sublimation pressure ([1]; 313.15 K): 7.411 ± 0.22 kPa; vapor or sublimation pressure ([1]; 323.15 K): 12.4 ± 0.37 kPa; vapor or sublimation pressure ([1]; 333.15 K): 20 ± 0.6 kPa; vapor or sublimation pressure ([1]; 343.15 K): 31.21 ± 0.94 kPa; vapor or sublimation pressure ([1]; 353.15 K): 47.3 ± 1.4 kPa; vapor or sublimation pressure ([1]; 363.15 K): 69.77 ± 2.1 kPa
7 | O [water] + OCCCO |  |  |  |  |  |  |  |  |  | 999.68 ± 0.9 | 1529.2 ± 1.7 | 
